In PubChem BioAssay (NCI):
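Grown in 96-well plates, cells were treated for 48 hours with each compound at five concentrations. Insufficient inhibition: endpoint recorded as highest concentration tested. GI50: concentration for 50% inhibition of growth. At the TGI there is no net growth.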

Tests used:
Assay in all cases: NCI tumour cell line growth inhibition, 48 h
[1] = tested on: DLD-1 colon
[2] = tested on: RXF-631 renal
[3] = tested on: M19-MEL melanoma
[4] = tested on: XF 498 CNS
[5] = tested on: KM20L2 colon
[6] = tested on: HOP-18 NSCLC
[7] = tested on: LXFL 529 NSCLC
[8] = tested on: DMS 114 small cell lung
[9] = tested on: MDA-N
[10] = tested on: P388/ADR leukemia
[11] = tested on: P388 leukemia

| SMILES | TGI [1] [µM] | TGI [2] [µM] | TGI [3] [µM] | TGI [4] [µM] | TGI [5] [µM] | TGI [6] [µM] | TGI [7] [µM] | TGI [8] [µM] | also measured |
| --- | --- | --- | --- | --- | --- | --- | --- | --- | --- |
| CCOC(=O)C1=C(NNC(=O)Cc2ccccc2)CSC1=Nc1ccccc1 | > 100 | > 100 | > 100 | > 100 | > 100 | > 100 | > 100 |  |  |
| O=c1c2cc(Br)ccc2nc(-c2ccccc2Cl)n1NCC1(O)OCC(O)C(O)C1O (centres undefined) |  |  | > 100 |  | > 100 |  | > 100 | > 100 |  |
| N#C/C(=C1\NN=C(N)C(c2ccc(Cl)cc2)=C1O)c1ccc(Cl)cc1 | > 100 |  | > 100 | > 100 | > 100 | > 100 | > 100 | > 100 |  |
| O=C(O)CCSCCCN1C(=O)c2ccccc2C1=O |  |  | > 100 |  | > 100 |  | > 100 | > 100 |  |
| [C-]#[O+].[C-]#[O+].[C-]#[O+].[C-]#[O+].[Ir].[Ir].[O-]c1ccc2ccccc2c1C=Nc1ccc(N=Cc2c([O-])ccc3ccccc23)cc1 | > 100 | > 100 | > 100 | > 100 | > 100 | > 100 | > 100 | > 100 | GI50 [1]: > 100 µM; GI50 [2]: > 100 µM; GI50 [3]: > 100 µM; GI50 [4]: > 100 µM; GI50 [5]: 59.2 µM; GI50 [6]: > 100 µM; GI50 [7]: > 100 µM; GI50 [8]: > 100 µM |
| C=C(C)C(=O)OC1CC2=CC(CC3(C)OC3C3OC(=O)C(=C)C13)OC2=O (centres undefined) | 5.17 | 35.8 | 19 |  | 30.5 | 34.1 | 5.94 | 30.3 |  |
| COc1ccc(C2=NN(C(=O)COc3ccc(Cl)cc3)C(O)(c3ccc(Cl)cc3)C2)cc1 (centres undefined) | > 100 | > 100 |  | > 100 | > 100 |  | > 100 |  |  |
| CC(=O)Nc1ccccc1C=C1c2ccccc2-c2ccccc21 |  |  |  |  |  |  |  |  | TGI [9]: > 100 µM |
| CCc1ccccc1N1CCN(C(=O)c2cc(OC)c(OC)c(OC)c2)CC1 | > 100 |  | > 100 | 17.9 | 0.307 | > 91.9 |  | 0.692 | TGI [10]: 4.22 µM; TGI [11]: 0.367 µM |
| CS(=O)(=O)OCCn1cnc2nc(NC(=O)c3ccccc3)[nH]c(=O)c21 | > 100 | > 100 | > 100 |  | > 100 | > 100 | > 100 | > 100 |  |
| CC(=O)Nc1ccc(/C=N\N2C(=O)c3ccccc3C2=O)cc1 | > 100 |  | > 100 | > 100 | > 100 | > 100 | > 100 | > 100 |  |
| CC1CC2C(=O)N(c3ccccc3)C(=O)C2c2c1c1ccccc1n2Cc1ccccc1 (centres undefined) | > 100 |  | > 100 |  |  |  | > 100 | > 100 |  |
| O=C(/C=C/c1ccc(Cl)c(Cl)c1)c1ccc(F)cc1 | 27.8 | > 100 | 32.5 |  | 35.2 | 50.2 | 27.7 | 30 |  |
| Nc1ncnc2c1ncn2CC(O)C(=O)O (centres undefined) | > 100 |  | > 100 |  | > 100 | > 100 | > 100 | > 100 | TGI [9]: > 100 µM |
| CC1CC(c2cccc3c2OCO3)=Nc2ccccc2S1 (centres undefined) | > 100 |  | > 100 | > 100 | > 100 |  | > 100 | > 100 |  |
| NC1=C(Br)C(=O)c2ncccc2C1=O | 1.98 | 3.73 | 0.298 | 2.16 | 3.54 |  | 0.8 | 0.313 |  |
